Assay results taken from US9226904B2, “Pharmacological treatment of Parkinson's disease” (The United States of America as Represented by the …, priority 2006, dated 2016).

What was measured:
[1] = system: hemi-lesioned 6-OHDA-treated rat; assay: Rotational activity (contralateral turns) in hemi-lesioned 6-OHDA-treated rat model of Parkinson's disease; assay type: in vivo; settings: for contralateral turning after D1 agonist SKF 38393 (0.1 mg/kg) on test day: 14 days R(+)-8-OHDPAT 0.3 mg/kg or vehicle, then same plus SKF 38393 0.1 mg/kg on test day, observed 3 hr, FIG. 2, p<0.005
Method: Rats were rendered parkinsonian on one side of the brain by unilateral destruction of nigrostriatal dopamine neurons using the selective neurotoxin 6-OHDA and stereotaxic procedures. Animals were allowed to recover for at least 2 weeks following this procedure. Animals were then screened for efficacy of the lesion by subcutaneous injection of L-DOPA (25 mg/kg) plus the decarboxylase inhibitor benserazide (6.25 mg/kg) followed by assessment of motor activity.
Anti-parkinsonian action in the hemi-lesioned 6-OHDA-treated rat model was assessed by the elicitation of rotational activity to the side opposite the lesioned hemisphere (contralateral turns) following drug treatment. The number of contralateral turns was assessed by videotape recording of animals and counting the number of turns.
One group (controls) received a daily subcutaneous injection of vehicle (0.9% saline containing 0.1 mg/kg ascorbate; 1 ml/kg) for 14 days and the other group (8-OHDPAT) received a daily subcutaneous injection of R(+)-8-OHDPAT (0.3 mg/kg in 1 ml/kg volume) for 14 days. Beginning on day 15, both groups of rats were tested for motor activity and dyskinetic activity in response to the D1 receptor partial agonist SKF 38393 or the D2 receptor agonist quinpirole. Such testing was carried out in a randomized fashion with different doses of dopamine agonist being tested every 4th day (e.g. 3 days between dopamine agonist administration). Throughout this testing phase the control group continued to receive daily injection of vehicle and the 8-OHDPAT group continued to receive daily injection of 0.3 mg/kg R(+)-8-OHDPAT. On days when dopamine agonists were tested the vehicle or R(+)-8-OHDPAT was administered simultaneously with the dopamine agonist.

[2] = system: ΔFosB; assay: Immunoblot of ΔFosB in denervated striatum of unilateral 6-OHDA-lesioned rats; assay type: in vivo, rat; settings: once daily for 15 days; L-DOPA 25 mg/kg plus 6.25 mg/kg benserazide; SKF 38393 1 mg/kg; R(+)-8-OHDPAT 0.3 mg/kg concomitant with SKF 38393; FIG. 9; p<0.05
Method: To test whether a drug-related rise in ΔFosB contributes to dyskinesias elicited by repeated L-DOPA treatment, ΔFosB levels were assessed by immunoblotting. FIG. 8 provides an image of a typical blot. […] Thus a significant target of the treatments of the present invention is contemplated to be ΔFosB in the striatum. Even so, knowledge of the mechanism(s) is not necessary in order to make and use the present invention.

[3] = system: hemi-lesioned 6-OHDA-treated rat; assay: Rotational activity (contralateral turns) in hemi-lesioned 6-OHDA-treated rat model of Parkinson's disease; assay type: in vivo; settings: for rotational response on day 15 of once daily administration: SKF 38393 0.1, 0.3 or 1.0 mg/kg with vehicle or with R(+)-8-OHDPAT 0.3 mg/kg, once daily 15 days, FIG. 10; for direction of turning elicited: daily s.c. dosing, R(+)-8-OHDPAT 0.3 mg/kg
[4] = coadministration with levodopa; Bibbiani et al., Neurology 2001; cited from earlier work
[5] = system: hemi-lesioned 6-OHDA-treated rat; assay: Observer assessment of motor dyskinesias (dyskinesia index) during rotational test; assay type: in vivo; settings: repeated R(+)-8-OHDPAT administration, 3 hr rotational test
Method: Observer assessment of motor dyskinesias was carried out be viewing the videotaped recording of rats during testing for rotational activity. A dyskinesia score was generated at 10 minute intervals throughout the course of the rotational test (generally 3 hr). Dyskinesia scores were based on the following scale: 0-no evidence of abnormal activity; 1 mild, intermittent forelimb dyskinesia; 2-severe, more persistent forelimb dyskinesia associated with animal directing activity toward forelimb; 3-severe limb and axial dyskinesia associated with loss of balance and consistent “barrel-rolling” activity. The dyskinesia scores that were obtained were averaged to generate a dyskinesia index.
The experiments described in this example were conducted as described above. A dyskinesia index for each animal was determined during a 3 hr rotational test.

[6] = L-DOPA 10 mg/kg + 6.25 mg/kg benserazide, FIG. 1

Row | SMILES | contralateral turning after D1 agonist SKF 38393 (0.1 mg/kg) on test day [1] | ΔFosB in the denervated striatum [2] | rotational response on day 15 of once daily administration [3] | direction of turning elicited [3, 6] | also measured
1 | Oc1cc2c(cc1O)C(c1ccccc1)CNCC2 (stereo not drawn) [SKF 38393] | no contralateral turning | significant increase | little net contralateral turning |  | 
2 | COc1ccccc1N1CCN(CCN(C(=O)C2CCCCC2)c2ccccn2)CC1 [WAY 100635] |  |  |  |  | effect of 5-HT1A antagonist pretreatment on R(+)-8-OHDPAT-facilitated anti-parkinsonian action of SKF 38393 ([1]; WAY 100635 0.1 mg/kg on test day prior to R(+)-8-OHDPAT 0.3 mg/kg plus SKF 38393 0.3 mg/kg, at least 14 days daily R(+)-8-OHDPAT, FIG. 7): blocked the facilitating effects
3 | Fc1ccc(-c2cncc(CNC[C@H]3CCc4ccccc4O3)c2)cc1 [sarizotan] |  |  |  |  | motor complications of levodopa treatment [4]: reduced motor complications
4 | N[C@@H](Cc1ccc(O)c(O)c1)C(=O)O [L-DOPA, levodopa] |  | significant increase |  | almost exclusively contralateral turning | contralateral turning on Day 15 relative to Day 1 ([3]; repeated daily s.c. dosing, L-DOPA 10 mg/kg + 6.25 mg/kg benserazide, R(+)-8-OHDPAT 0.3 mg/kg where given, FIG. 1): approximately 3 fold; coordination of the turning response (observed, not quantified) ([3]; upon repeated daily administration, L-DOPA 10 mg/kg + benserazide, R(+)-8-OHDPAT 0.3 mg/kg where given): progressively more uncoordinated
5 | CCCN(CCC)C1CCc2cccc(O)c2C1 (stereo not drawn) [R(+)-8-OHDPAT, 8-hydroxy-2-(di-n-propylamino)tetralin] | pronounced contralateral turning | prevents the D1 agonist-induced rise in ΔFosB | significantly greater contralateral turning response | ipsilateral turning could be elicited | anti-parkinsonian action (contralateral turning), chronic and concomitant versus acute administration ([1]; 14 day pretreatment with R(+)-8-OHDPAT 0.3 mg/kg plus concomitant R(+)-8-OHDPAT+SKF 38393 0.3 mg/kg on test day, FIG. 4, p<0.001): significant anti-parkinsonian action greater than all other treatment groups; contralateral turning after D2 agonist quinpirole (0.05 mg/kg) on test day ([1]; 14 days R(+)-8-OHDPAT 0.3 mg/kg, then R(+)-8-OHDPAT plus quinpirole 0.05 mg/kg on test day, vs vehicle plus quinpirole, 3 hr, FIG. 3, p<0.001): significantly greater contralateral turning; dyskinetic behavior (dyskinesia index) elicited by SKF 38393 (3.0 mg/kg) ([5]; FIG. 5): reduced dyskinetic behavior; dyskinetic behavior (dyskinesia index) elicited by quinpirole (0.05 mg/kg) ([5]; FIG. 6): reduced dyskinetic behavior; rotational response, pre-screened (primed) versus non-pre-screened (unprimed) rats ([3]; 15 days once daily R(+)-8-OHDPAT 0.3 mg/kg plus SKF 38393 0.3 mg/kg, FIG. 11): no significant difference
